# Assay results as given in patent US5098931A, “7-substituted HMG-CoA reductase inhibitors” (Merck & Co., Inc., priority 1990, dated 1992).
# Target: T1, HMG-CoA reductase (Rattus norvegicus, UniProt P51639)
# T1 sequence (P51639 1-887): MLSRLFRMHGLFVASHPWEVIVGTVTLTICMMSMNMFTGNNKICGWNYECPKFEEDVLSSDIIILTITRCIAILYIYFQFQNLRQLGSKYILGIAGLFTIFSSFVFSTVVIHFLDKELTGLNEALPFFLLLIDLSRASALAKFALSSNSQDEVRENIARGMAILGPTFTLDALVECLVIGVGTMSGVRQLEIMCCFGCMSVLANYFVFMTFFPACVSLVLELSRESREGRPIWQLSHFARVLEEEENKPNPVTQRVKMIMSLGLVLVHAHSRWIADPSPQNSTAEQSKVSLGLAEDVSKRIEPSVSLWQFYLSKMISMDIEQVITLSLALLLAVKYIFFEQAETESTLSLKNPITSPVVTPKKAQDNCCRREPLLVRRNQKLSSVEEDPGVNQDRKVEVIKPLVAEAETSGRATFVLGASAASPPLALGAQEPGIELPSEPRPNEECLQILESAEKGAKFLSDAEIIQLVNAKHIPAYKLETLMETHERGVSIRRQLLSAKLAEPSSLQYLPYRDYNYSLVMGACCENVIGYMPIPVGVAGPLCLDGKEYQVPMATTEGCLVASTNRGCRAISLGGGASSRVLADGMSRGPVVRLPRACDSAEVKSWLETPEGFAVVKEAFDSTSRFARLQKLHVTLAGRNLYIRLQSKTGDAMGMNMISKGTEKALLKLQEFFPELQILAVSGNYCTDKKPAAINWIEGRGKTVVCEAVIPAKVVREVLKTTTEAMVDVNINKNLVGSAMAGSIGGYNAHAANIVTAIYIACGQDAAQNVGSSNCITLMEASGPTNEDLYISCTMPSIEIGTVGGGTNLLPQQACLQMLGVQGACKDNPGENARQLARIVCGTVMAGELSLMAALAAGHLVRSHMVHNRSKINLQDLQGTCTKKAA
# Experiment: intrinsic HMG-CoA reductase inhibition, published in vitro protocol (J. Med. Chem., 28, p. 347-358 (1985))
# Assay type: biochemical
# Details: IC50 of test compound compared with that of compactin (mevastatin) determined simultaneously; compactin assigned a value of 100
# Protocol: The intrinsic HMG-CoA reductase inhibition activity of the claimed compounds is measured in the in vitro protocol published in J. Med. Chem., 28, p. 347-358 (1985). […] Representative of the intrinsic HMG-CoA reductase inhibitory activities of the claimed compounds are the following relative potencies for compounds of formula (I).
row,Relative Potency (Compactin = 100),SMILES
1,137,"CCC(C)(C)C(=O)O[C@@H]1[C@H]2C(=C[C@H](C)[C@H]1[C@H](O)c1ccccc1)C=C[C@H](C)[C@@H]2CC[C@@H]1C[C@@H](O)CC(=O)O1 [6R-[2-[8(R)-(2,2-dimethylbutyryloxy)-2(S)-methyl-6(S)-methyl-7(S)-(1(S)-hydroxybenzyl)-1,2,6,7,8,8a(R)-hexahydronaphthyl-1(S)]-ethyl]-4(R)-hydroxy-3,4,5,6-tetrahydro-2H-pyran-2-one]"
2,262,"CCC(C)(C)C(=O)O[C@H]1[C@H](CO)[C@@H](C)C=C2C=C[C@H](C)[C@H](CC[C@@H]3C[C@@H](O)CC(=O)O3)[C@H]21 [6(R)-[2-[8(R)-(2,2-dimethylbutyryloxy)-2(S)-methyl-6(S)-methyl-7(S)-hydroxymethyl-1,2,6,7,8,8a(R)-hexahydronaphthyl-1(S)]ethyl]-4(R)-hydroxy-3,4,5,6-tetrahydro-2H-pyran-2-one]"
3,124,"CCC(C)(C)C(=O)O[C@@H]1[C@H]2C(=C[C@H](C)[C@H]1[C@@H](C)O)C=C[C@H](C)[C@@H]2CC[C@@H]1C[C@@H](O)CC(=O)O1 [6R-[2-[8(R)-(2,2-dimethylbutyryloxy)-2(S)-methyl-6(S)-methyl-7(S)-(1(R)-hydroxyethyl)-1,2,6,7,8,8a(R)-hexahydronaphthyl-1(S)]ethyl]-4(R)-hydroxy-3,4,5,6-tetrahydro-2H-pyran-2-one]"
4,350,"CCC(C)(C)C(=O)O[C@@H]1[C@H]2C(=C[C@H](C)[C@H]1[C@H](C)O)C=C[C@H](C)[C@@H]2CC[C@@H]1C[C@@H](O)CC(=O)O1 [6R-[2-[8(R)-(2,2-dimethylbutyryloxy)-2(S)-methyl-6(S)-methyl-7(S)-(1(S)-hydroxyethyl)-1,2,6,7,8,8a(R)-hexahydronaphthyl-1(S)]ethyl]-4(R)-hydroxy-3,4,5,6-tetrahydro-2H-pyran-2-one]"

# The next lines start with the compound.
row,SMILES,Relative Potency (Compactin = 100)
1,"CCC(C)(C)C(=O)O[C@H]1[C@H](C)[C@@H](C)C=C2C=C[C@H](C)[C@H](CC[C@@H]3C[C@@H](O)CC(=O)O3)[C@H]21 [6(R)-[2-[8(R)-(2,2-dimethylbutyryloxy)-2(S)-methyl-6(S)-methyl-7(R)-methyl-1,2,6,7,8,8a(R)-hexahydronaphthyl-1(S)]ethyl]-4(R)-hydroxy-3,4,5,6-tetrahydro-2H-pyran-2-one]",174
2,"CCC(C)(C)C(=O)O[C@H]1[C@@H](O)[C@@H](C)C=C2C=C[C@H](C)[C@H](CC[C@@H]3C[C@@H](O)CC(=O)O3)[C@H]21 [6(R)-[2-[8(R)-(2,2-dimethylbutyryloxy)-2(S)-methyl-6(S)-methyl-7(S)-hydroxy-1,2,6,7,8,8a(R)-hexahydronaphthyl-1(S)]ethyl]-4(R)-hydroxy-3,4,5,6-tetrahydro-2H-pyran-2-one]",214
